Consider one compound from patent publication US20240180868A1, “PHARMACEUTICAL COMPOSITION FOR PREVENTION OR TREATMENT OF VIRUS INFECTION, THE PHARMACEUTICAL COMPOSITION COMPRISING ROTTLERIN AS ACTIVE INGREDIENT” (QVET, priority 2021, published 2024).

Structures are written as SMILES.

One assay concerns PRRSV FL12. As to the kind of experiment: PRRSV animal model, 4-week-old pigs, intranasal spray. The format is in vivo. As to conditions: 1 mg intranasal. The protocol: Validity assessment for target animals were performed using 4-week-old pigs. A total of 15 pigs were used, and randomly distributed into a positive PRRSV FL12 administration group, a rottlerin liposome 100 μg administration group (R-L 100 μg), a rottlerin liposome 1 mg administration group (R-L 1 mg), and a rottlerin raw material 1 mg administration group (R 1 mg), wherein four animals were used for each group (three animals were used for the rottlerin liposome 100 μg administration group).
The pigs of each group were inoculated with 10^5 TCID50/ml FL12, and after the inoculation, 2 ml of each therapeutic agent was intranasally administered by spray.
Sera were separated from the pigs on days 1, 3, 7, 14, and 19, and the pigs were euthanized and necropsied on day 19 of inoculation. The lung tissue of each pig was collected and lesions were evaluated, thereby calculating lung lesion scores. […]
Microscopic lung lesions were measured from 0 to 4 according to the degree of interstitial pneumonia as follows: (0, no lesions; 1, mild lesions or less than half being lesions; 2, common lesions or half being lesions; 3, moderately spread lesions or more than half being lesions; 4, severe lesions or full lesions). […]

A further assay relates to PRRSV. As to the kind of experiment: PRRSV protein expression, fluorescent immunostaining of nucleocapsids. As to conditions: 10 μM; 48 hours after inoculation. Type of assay: cell-based. The method, then:
To evaluate the inhibitory effect of rottlerin or rottlerin liposomes against PRRSV protein expression, the cells were treated with 5 μM rottlerin liposomes and 10 μM rottlerin, and 48 hours after inoculation, fluorescent immunostaining was performed using primary antibody for PRRSV nucleocapsids and Alexa 488 secondary antibody.

Turning to `CC(=O)c1c(O)c(C)c(O)c(Cc2c(O)c3c(c(C(=O)/C=C/c4ccccc4)c2O)OC(C)(C)C=C3)c1O` [rottlerin], the clinical symptom score entry in the assay on PRRSV FL12 (scored daily 0 to 6) was “significant decrease in clinical symptom score on days 8, 16, 17, and 18”. The “area under curve (AUC) of viremia, qRT-PCR” value in the assay with PRRSV FL12 (vs FL12 group, p≤0.05) was “significantly lower”. For the same compound, in the assay on PRRSV, the “PRRSV virus proteins detected by fluorescent immunostaining” value is recorded as “virus proteins were not detected”.
